Assay results published in patent publication EP0908457B1, “3-(1,2-benzisothiazol- and isoxazol-5-Y1)-2,4(1H,3H)-pyrimidinedione or thione and 3-(1,2-benzisothiazol- and isoxazol-5-y1)-4(3H)-pyrimidinone or thione herbicidal agents” (BASF AKTIENGESELLSCHAFT, priority 1997, dated 1999).

Key:
[1] = system: Echinochloa oryzoides (Ard.) Fritsch.; assay: Preemergence weed control under flooded paddy conditions, ECHORC (Watergrass (Calif.)); assay type: in vivo; conditions: preemergence, flooded paddy, rated three to four weeks after treatment; note: meaning of each grade not given here
Cyperus iria [2] = assay: Preemergence weed control under flooded paddy conditions, CYPIR (Rice Flatsedge); assay type: in vivo; conditions: preemergence, flooded paddy, rated three to four weeks after treatment; note: meaning of each grade not given here
[3] = system: Cyperus serotinus, Rottb.; assay: Preemergence weed control under flooded paddy conditions, CYPSE (Flatsedge); assay type: in vivo; conditions: preemergence, rated three to four weeks after treatment; note: meaning of each grade not given here
[4] = system: Monochoria vaginalis, Presl.; assay: Preemergence weed control under flooded paddy conditions, MOOVA (Monochoria); assay type: in vivo; conditions: preemergence, flooded paddy, rated three to four weeks after treatment; note: meaning of each grade not given here
Sagittaria pygmaea, L. [5] = assay: Preemergence weed control under flooded paddy conditions, SAGPY (Arrowhead (Pygmaea)); assay type: in vivo; conditions: preemergence, flooded paddy, rated three to four weeks after treatment; note: meaning of each grade not given here
[6] = system: Echinochloa oryzoides (Ard.) Fritsch.; assay: Postemergence weed control under flooded paddy conditions, ECHORC (Watergrass (Calif.)); assay type: in vivo; conditions: rated three to four weeks after treatment
Cyperus iria [7] = assay: Postemergence weed control under flooded paddy conditions, CYPIR (Rice Flatsedge); assay type: in vivo; conditions: rated three to four weeks after treatment
[8] = system: Cyperus serotinus, Rottb.; assay: Postemergence weed control under flooded paddy conditions, CYPSE (Flatsedge); assay type: in vivo; conditions: rated three to four weeks after treatment
[9] = system: Monochoria vaginalis, Presl.; assay: Postemergence weed control under flooded paddy conditions, MOOVA (Monochoria); assay type: in vivo; conditions: rated three to four weeks after treatment
Sagittaria pygmaea, L. [10] = assay: Postemergence weed control under flooded paddy conditions, SAGPY (Arrowhead (Pygmaea)); assay type: in vivo; conditions: rated three to four weeks after treatment
[11] = system: Oryza sativa, (L.) Tebonnet; assay: Rice tolerance to post-transplant applications under flooded paddy conditions (Example 187), ORYSAT (Rice, Tebonnet); conditions: rated three to four weeks after treatment
[12] = system: Oryza sativa, (L.) Tebonnet; assay: Rice tolerance to post-transplant applications under flooded paddy conditions (Example 188), ORYSAT (Rice, Tebonnet); conditions: rated three to four weeks after treatment

COc1ccc(C)cc1-c1nsc2ccc(-n3c(=O)cc(C(F)(F)F)n(C)c3=O)cc12 [Example 1, 3-[3-(6-Methoxy-m-tolyl)-1,2-benzisothiazol-5-yl]-1-methyl-6-(trifluoromethyl)-2,4(1H,3H)-pyrimidinedione]
herbicidal effect rating, ECHORC ([1]; 0.0313 kg/ha): 9.0 | herbicidal effect rating, ECHORC ([1]; 0.0625 kg/ha): 9.0 | herbicidal effect rating, ECHORC ([1]; 0.1250 kg/ha): 9.0 | herbicidal effect rating, ECHORC ([1]; 0.2500 kg/ha): 9.0 | herbicidal effect rating, ECHORC ([1]; 0.5000 kg/ha): 9.0 | herbicidal effect rating, CYPIR (Cyperus iria [2]; 0.0313 kg/ha): 9.0 | herbicidal effect rating, CYPIR (Cyperus iria [2]; 0.0625 kg/ha): 9.0 | herbicidal effect rating, CYPIR (Cyperus iria [2]; 0.1250 kg/ha): 9.0 | herbicidal effect rating, CYPIR (Cyperus iria [2]; 0.2500 kg/ha): 9.0 | herbicidal effect rating, CYPIR (Cyperus iria [2]; 0.5000 kg/ha): 9.0 | herbicidal effect rating, CYPSE ([3]; 0.0313 kg/ha): 1.3 | herbicidal effect rating, CYPSE ([3]; 0.0625 kg/ha): 3.0 | herbicidal effect rating, CYPSE ([3]; 0.1250 kg/ha): 6.0 | herbicidal effect rating, CYPSE ([3]; 0.2500 kg/ha): 9.0 | herbicidal effect rating, CYPSE ([3]; 0.5000 kg/ha): 8.0 | herbicidal effect rating, MOOVA ([4]; 0.0313 kg/ha): 9.0 | herbicidal effect rating, MOOVA ([4]; 0.0625 kg/ha): 9.0 | herbicidal effect rating, MOOVA ([4]; 0.1250 kg/ha): 9.0 | herbicidal effect rating, MOOVA ([4]; 0.2500 kg/ha): 9.0 | herbicidal effect rating, MOOVA ([4]; 0.5000 kg/ha): 9.0 | herbicidal effect rating, SAGPY (Sagittaria pygmaea, L. [5]; 0.0313 kg/ha): 3.3 | herbicidal effect rating, SAGPY (Sagittaria pygmaea, L. [5]; 0.0625 kg/ha): 5.0 | herbicidal effect rating, SAGPY (Sagittaria pygmaea, L. [5]; 0.1250 kg/ha): 6.7 | herbicidal effect rating, SAGPY (Sagittaria pygmaea, L. [5]; 0.2500 kg/ha): 8.3 | herbicidal effect rating, SAGPY (Sagittaria pygmaea, L. [5]; 0.5000 kg/ha): 8.5 | herbicidal effect rating, ECHORC ([6]; Rate 0.0313 kg/ha): 1.0 | herbicidal effect rating, ECHORC ([6]; Rate 0.0625 kg/ha): 2.5 | herbicidal effect rating, ECHORC ([6]; Rate 0.1250 kg/ha): 6.5 | herbicidal effect rating, ECHORC ([6]; Rate 0.2500 kg/ha): 8.0 | herbicidal effect rating, ECHORC ([6]; Rate 0.5000 kg/ha): 9.0 | herbicidal effect rating, CYPIR (Cyperus iria [7]; Rate 0.0313 kg/ha): 0.0 | herbicidal effect rating, CYPIR (Cyperus iria [7]; Rate 0.0625 kg/ha): 4.0 | herbicidal effect rating, CYPIR (Cyperus iria [7]; Rate 0.1250 kg/ha): 9.0 | herbicidal effect rating, CYPIR (Cyperus iria [7]; Rate 0.2500 kg/ha): 9.0 | herbicidal effect rating, CYPIR (Cyperus iria [7]; Rate 0.5000 kg/ha): 9.0 | herbicidal effect rating, CYPSE ([8]; Rate 0.0313 kg/ha): 1.0 | herbicidal effect rating, CYPSE ([8]; Rate 0.0625 kg/ha): 1.0 | herbicidal effect rating, CYPSE ([8]; Rate 0.1250 kg/ha): 3.0 | herbicidal effect rating, CYPSE ([8]; Rate 0.2500 kg/ha): 5.5 | herbicidal effect rating, CYPSE ([8]; Rate 0.5000 kg/ha): 6.5 | herbicidal effect rating, MOOVA ([9]; Rate 0.0313 kg/ha): 0.0 | herbicidal effect rating, MOOVA ([9]; Rate 0.0625 kg/ha): 1.0 | herbicidal effect rating, MOOVA ([9]; Rate 0.1250 kg/ha): 4.5 | herbicidal effect rating, MOOVA ([9]; Rate 0.2500 kg/ha): 5.5 | herbicidal effect rating, MOOVA ([9]; Rate 0.5000 kg/ha): 6.5 | herbicidal effect rating, SAGPY (Sagittaria pygmaea, L. [10]; Rate 0.0313 kg/ha): 0.0 | herbicidal effect rating, SAGPY (Sagittaria pygmaea, L. [10]; Rate 0.0625 kg/ha): 0.0 | herbicidal effect rating, SAGPY (Sagittaria pygmaea, L. [10]; Rate 0.1250 kg/ha): 0.0 | herbicidal effect rating, SAGPY (Sagittaria pygmaea, L. [10]; Rate 0.2500 kg/ha): 1.0 | herbicidal effect rating, SAGPY (Sagittaria pygmaea, L. [10]; Rate 0.5000 kg/ha): 3.0 | herbicidal effect rating, ORYSAT (rice tolerance) ([11]; 0.0313 kg/ha): 4.7 | herbicidal effect rating, ORYSAT (rice tolerance) ([11]; 0.0625 kg/ha): 4.7 | herbicidal effect rating, ORYSAT (rice tolerance) ([11]; 0.1250 kg/ha): 5.3 | herbicidal effect rating, ORYSAT (rice tolerance) ([11]; 0.2500 kg/ha): 7.7 | herbicidal effect rating, ORYSAT (rice tolerance) ([11]; 0.5000 kg/ha): 7.0 | herbicidal effect rating, ORYSAT (rice tolerance) ([12]; Rate 0.0313 kg/ha): 3.0 | herbicidal effect rating, ORYSAT (rice tolerance) ([12]; Rate 0.0625 kg/ha): 3.0 | herbicidal effect rating, ORYSAT (rice tolerance) ([12]; Rate 0.1250 kg/ha): 4.0 | herbicidal effect rating, ORYSAT (rice tolerance) ([12]; Rate 0.2500 kg/ha): 6.0 | herbicidal effect rating, ORYSAT (rice tolerance) ([12]; Rate 0.5000 kg/ha): 7.0
